From patent publication US10112937B2, “P2X7 modulators and methods of use” (Janssen Pharmaceutica NV, priority 2013, dated 2018) come the findings set out here.

Each structure is given as a SMILES string.

This test deals with human P2X7 (Homo sapiens (Human), UniProt Q99572). Kind of test: P2X7 antagonism in human PBMCs (IL-1β release after LPS + Bz-ATP, ELISA). Type of test: cell-based. Conditions: human PBMCs, test compound 10 μM.
Chain of human P2X7 (Q99572 whole entry): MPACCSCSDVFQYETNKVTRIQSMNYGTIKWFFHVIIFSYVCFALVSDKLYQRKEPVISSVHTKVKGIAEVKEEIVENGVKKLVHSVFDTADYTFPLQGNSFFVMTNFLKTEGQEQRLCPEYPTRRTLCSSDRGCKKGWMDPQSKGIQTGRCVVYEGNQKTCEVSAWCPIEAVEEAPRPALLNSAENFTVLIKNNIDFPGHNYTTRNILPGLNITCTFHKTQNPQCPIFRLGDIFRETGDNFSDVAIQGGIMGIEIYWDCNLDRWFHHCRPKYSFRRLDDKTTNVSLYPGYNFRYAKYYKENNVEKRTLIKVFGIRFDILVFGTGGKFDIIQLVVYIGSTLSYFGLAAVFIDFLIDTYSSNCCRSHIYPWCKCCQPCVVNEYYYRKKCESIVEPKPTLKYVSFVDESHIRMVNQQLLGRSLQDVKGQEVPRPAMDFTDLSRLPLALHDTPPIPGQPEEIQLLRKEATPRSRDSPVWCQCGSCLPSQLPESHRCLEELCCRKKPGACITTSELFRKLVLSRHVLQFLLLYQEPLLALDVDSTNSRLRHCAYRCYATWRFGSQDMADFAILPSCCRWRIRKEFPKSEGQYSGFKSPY
As for `CC1Cc2c(nnn2-c2cnccn2)CN1C(=O)c1cccc(C(F)(F)F)c1Cl` (stereo not drawn) [Example 209, 5-{[2-Chloro-3-(trifluoromethyl)phenyl]carbonyl}-6-methyl-1-pyrazin-2-yl-4,5,6,7-tetrahydro-1H-[1,2,3]triazolo[4,5-c]pyridine], the “PBMC 10 μM (% control)” value was −1.0 % control. With `CC1Cc2c(nnn2-c2cc[nH]n2)CN1C(=O)c1cccc(C(F)(F)F)c1Cl` (stereo not drawn) [Example 210, (2-chloro-3-(trifluoromethyl)phenyl)(6-methyl-1-(1H-pyrazol-3-yl)-6,7-dihydro-1H-[1,2,3]triazolo[4,5-c]pyridin-5(4H)-yl)methanone], the “PBMC 10 μM (% control)” value stood at 0.8 % control. Take `CC1Cc2c(nnn2-c2ncc(F)cn2)CN1C(=O)c1ccc(F)c(Cl)c1Cl` (stereo not drawn) [Example 213, 5-[(2,3-Dichloro-4-fluorophenyl)carbonyl]-1-(5-fluoropyrimidin-2-yl)-6-methyl-4,5,6,7-tetrahydro-1H-[1,2,3]triazolo[4,5-c]pyridine]: the “PBMC 10 μM (% control)” value was found to be 0.3 % control.

On to `CC1Cc2c(nnn2-c2ncc(F)cn2)CN1C(=O)c1ccc(Cl)c(F)c1Cl` (stereo not drawn) [Example 216, 5-[(2,4-Dichloro-3-fluorophenyl)carbonyl]-1-(5-fluoropyrimidin-2-yl)-6-methyl-4,5,6,7-tetrahydro-1H-[1,2,3]triazolo[4,5-c]pyridine], for which the “PBMC 10 μM (% control)” value is reported as 0.6 % control. Turning to `Cc1ccnc(-n2nnc3c2CCN(C(=O)c2cccc(Cl)c2Cl)C3C)n1` (stereo not drawn) [Example 225, (2,3-dichlorophenyl)(4-methyl-1-(4-methylpyrimidin-2-yl)-6,7-dihydro-1H-[1,2,3]triazolo[4,5-c]pyridin-5(4H)-yl)methanone], the “PBMC 10 μM (% control)” value is listed as −1.0 % control. As for `C[C@H]1Cc2c(nnn2-c2ncc(F)cn2)CN1C(=O)c1ccnc(C(F)(F)F)c1F` [Example 228, (S)-(3-fluoro-2-(trifluoromethyl)pyridin-4-yl)(1-(5-fluoropyrimidin-2-yl)-6-methyl-6,7-dihydro-1H-[1,2,3]triazolo[4,5-c]pyridin-5(4H)-yl)methanone], the figure is −1.1 % control; as for `Cc1nc(-n2nnc3c2CCN(C(=O)c2cccc(C(F)(F)F)c2Cl)C3C)ncc1F` (stereo not drawn) [Example 230, (2-chloro-3-(trifluoromethyl)phenyl)(1-(5-fluoro-4-methylpyrimidin-2-yl)-4-methyl-6,7-dihydro-1H-[1,2,3]triazolo[4,5-c]pyridin-5(4H)-yl)methanone], 2.9 % control; as for `Cc1cc(C)nc(-n2nnc3c2CCN(C(=O)c2cccc(Cl)c2Cl)C3C)c1` (stereo not drawn) [Example 231, (2,3-dichlorophenyl)(1-(4,6-dimethylpyridin-2-yl)-4-methyl-6,7-dihydro-1H-[1,2,3]triazolo[4,5-c]pyridin-5(4H)-yl)methanone], −4.8 % control.

Consider `Cc1cccc(-n2nnc3c2CCN(C(=O)c2cccc(Cl)c2Cl)C3C)n1` (stereo not drawn) [Example 233, (2,3-dichlorophenyl)(4-methyl-1-(6-methylpyridin-2-yl)-6,7-dihydro-1H-[1,2,3]triazolo[4,5-c]pyridin-5(4H)-yl)methanone], for which the “PBMC 10 μM (% control)” value is −0.1 % control.

As for `CC1c2nnn(-c3cncnc3)c2C=CN1C(=O)c1cccc(C(F)(F)F)c1Cl` (stereo not drawn) [Example 236, (2-Chloro-3-(trifluoromethyl)phenyl)(4-methyl-1-(pyrimidin-5-yl)-1H-[1,2,3]triazolo[4,5-c]pyridin-5(4H)-yl)methanone], the “PBMC 10 μM (% control)” value was determined as 9.3 % control.

`Cc1ccnc(-n2nnc3c2CCN(C(=O)c2cccc(Cl)c2Cl)C3C)c1` (stereo not drawn) [Example 237, (2,3-dichlorophenyl)(4-methyl-1-(4-methylpyridin-2-yl)-6,7-dihydro-1H-[1,2,3]triazolo[4,5-c]pyridin-5(4H)-yl)methanone]: the “PBMC 10 μM (% control)” value is recorded as −5.1 % control. As for `CC1CN(C(=O)c2cccc(C(F)(F)F)c2Cl)C(C)c2nnn(-c3ccc(F)cc3)c21` (stereo not drawn) [Example 238, (2-Chloro-3-(trifluoromethyl)phenyl)(1-(4-fluorophenyl)-4,7-dimethyl-6,7-dihydro-1H-[1,2,3]triazolo[4,5-c]pyridin-5(4H)-yl)methanone], the figure is −4.1 % control; as for `CC1Cc2c(nnn2-c2ccccc2)C(C)N1C(=O)c1cccc(C(F)(F)F)c1Cl` (stereo not drawn) [Example 240, (2-Chloro-3-(trifluoromethyl)phenyl)(4,6-dimethyl-1-phenyl-6,7-dihydro-1H-[1,2,3]triazolo[4,5-c]pyridin-5(4H)-yl)methanone], −8.9 % control. On to `CC1CN(C(=O)c2cccc(C(F)(F)F)c2Cl)C(C)c2nnn(-c3ccccc3)c21` (stereo not drawn) [Example 241, (2-Chloro-3-(trifluoromethyl)phenyl)(4,7-dimethyl-1-phenyl-6,7-dihydro-1H-[1,2,3]triazolo[4,5-c]pyridin-5(4H)-yl)methanone], for which the “PBMC 10 μM (% control)” value came to 6.5 % control. Regarding `CC1Cc2c(nnn2-c2ccc(F)cc2)C(C)N1C(=O)c1cccc(Cl)c1Cl` (stereo not drawn) [Example 242, (2,3-Dichlorophenyl)(1-(4-fluorophenyl)-4,6-dimethyl-6,7-dihydro-1H-[1,2,3]triazolo[4,5-c]pyridin-5(4H)-yl)methanone], the “PBMC 10 μM (% control)” value is on record as −3.4 % control. For the compound `CC1Cc2c(nnn2-c2ccc(F)cc2)C(C)N1C(=O)c1cccc(C(F)(F)F)c1Cl` (stereo not drawn) [Example 243, (2-Chloro-3-(trifluoromethyl)phenyl)(1-(4-fluorophenyl)-4,6-dimethyl-6,7-dihydro-1H-[1,2,3]triazolo[4,5-c]pyridin-5(4H)-yl)methanone], the “PBMC 10 μM (% control)” value came to 1.0 % control. As for `CC1CN(C(=O)c2cccc(Cl)c2Cl)Cc2nnn(-c3ccccc3)c21` (stereo not drawn) [Example 244, (2,3-Dichlorophenyl)(7-methyl-1-phenyl-6,7-dihydro-1H-[1,2,3]triazolo[4,5-c]pyridin-5(4H)-yl)methanone], the figure is −2.3 % control; as for `CC1CN(C(=O)c2cccc(C(F)(F)F)c2Cl)Cc2nnn(-c3ccccc3)c21` (stereo not drawn) [Example 245, (2-Chloro-3-(trifluoromethyl)phenyl)(7-methyl-1-phenyl-6,7-dihydro-1H-[1,2,3]triazolo[4,5-c]pyridin-5(4H)-yl)methanone], −7.3 % control. As for `CC1CN(C(=O)c2cccc(C(F)(F)F)c2Cl)Cc2nnn(-c3ccc(F)cc3)c21` (stereo not drawn) [Example 246, (2-Chloro-3-(trifluoromethyl)phenyl)(1-(4-fluorophenyl)-7-methyl-6,7-dihydro-1H-[1,2,3]triazolo[4,5-c]pyridin-5(4H)-yl)methanone], the figure is −3.1 % control. Turning to `CC1CN(C(=O)c2cccc(Cl)c2Cl)Cc2nnn(-c3ccc(F)cc3)c21` (stereo not drawn) [Example 247, (2,3-Dichlorophenyl)(1-(4-fluorophenyl)-7-methyl-6,7-dihydro-1H-[1,2,3]triazolo[4,5-c]pyridin-5(4H)-yl)methanone], the “PBMC 10 μM (% control)” value was −0.8 % control.

As for `CC1c2nnn(-c3ncco3)c2CCN1C(=O)c1cccc(C(F)(F)F)c1Cl` (stereo not drawn) [Example 250, (2-Chloro-3-(trifluoromethyl)phenyl)(4-methyl-1-(oxazol-2-yl)-6,7-dihydro-1H-[1,2,3]triazolo[4,5-c]pyridin-5(4H)-yl)methanone], the “PBMC 10 μM (% control)” value is −1.3 % control.
